Assays:
[1] = test system: B. cinerea; experiment: In-vitro mycelium growth inhibition on CaP-amended PDA; assay type: cell-based, Botrytis cinerea; settings: six isolates, pH 6.0, 25° C. dark
Procedure: (§1) A 10% buffered (pH 6.0) stock solution in autoclaved de-ionized water was used to prepare working calcium propionate solutions. Initially, five concentrations of 0, 1, 5, 25, and 100 ppm were screened for determining the effect of calcium propionate on fungal mycelia. Higher concentrations of 300, 900, 2700, and 8100 ppm were also tested in mycelium growth inhibition assays to determine EC50 values for isolates sensitive and resistant to FRAC codes 1, 2, 7, 9, 11, 12, 13, and 17 (i.e., benzimidazoles, quinone outside inhibitors, dicarboxamides, succinate dehydrogenases, phenylpyrroles, demethylation inhibitor fungicides, and anilinopyrimidines respectively).
(§2) To prepare different concentrations, calculated amount of stock solution was mixed in autoclaved (121 C for 20 mins) potato dextrose agar (PDA) after the media cooled down to appropriate temperature. […] Mycelium growth diameter was measured using a vernier caliper just before the mycelium growth of two colonies in the control media plate overlapped. […] Mycelium inhibition rates were calculated and EC50 values were determined. Additionally, the fungistatic activity of calcium propionate was determined at 8000 mg/L (0.8%; pH 6.0) concentration, buffered at pH 6 with acetic acid. […] Mycelium growth was recorded every 24 h using a vernier caliper until fungal mycelia in control treatments reached the 90 mm in diameter petri dish rim.

[2] = test system: M. fructicola; experiment: as above; assay type: cell-based, Monilinia fructicola; settings: six isolates, pH 6.0, 25° C. dark
Procedure: as §1, §2

[3] = test system: A. alternata; experiment: as above; assay type: cell-based, Alternaria alternata
Procedure: as §1, §2

[4] = test system: C. siamense; experiment: as above; assay type: cell-based, Colletotrichum siamense
Procedure: as §1, §2

[5] = test system: all four pathogens (B. cinerea, M. fructicola, A. alternata, C. siamense); experiment: In-vitro mycelium growth inhibition, statements pooled over all four pathogens; assay type: cell-based
Procedure: as §1
To prepare different concentrations, calculated amount of stock solution was mixed in autoclaved (121 C for 20 mins) potato dextrose agar (PDA) after the media cooled down to appropriate temperature. Amended media with different CaP concentrations was poured in to 15×100 mm petri dishes (VWR International, LLC., Radnor, PA), and left to solidify. For mycelium growth, 5 mm plugs were obtained from the edges of freshly grown seven-day old cultures from all 24 isolates of different fungal genera including Alternaria sp., Botrytis sp., Colletotrichum sp., and Monilinia sp. (Table 1). Two culture plugs of each isolate were placed near opposite edges of individual CaP amended PDA media plates. The media plates with no CaP (0 ppm) served as control treatment. Inoculated plates were then incubated at 25° C. in dark for 7-10 days. Mycelium growth diameter was measured using a vernier caliper just before the mycelium growth of two colonies in the control media plate overlapped. […] Mycelium inhibition rates were calculated and EC50 values were determined. Additionally, the fungistatic activity of calcium propionate was determined at 8000 mg/L (0.8%; pH 6.0) concentration, buffered at pH 6 with acetic acid. […] Mycelium growth was recorded every 24 h using a vernier caliper until fungal mycelia in control treatments reached the 90 mm in diameter petri dish rim.

[6] = test system: B. cinerea isolate PDRK3; experiment: Botrytis blight severity on harvested petunia flowers after spray application; assay type: in vivo, Botrytis cinerea
Procedure: (§3) Calcium propionate concentrations were prepared by adding appropriate amounts in de-ionized water and tested in four separate experiments. Spray applications at 1.25%, 2.5%, and 5% (pH 7.7 and buffered with acetic acid to pH 6.5) (first experiment) and 0.5%, 0.75%, and 1% buffered with acetic acid to pH 6.5 (second experiment) were made on harvested open petunia flowers. Separately, spray applications at 0.1%, 0.2%, 0.3%, (third experiment) 0.5%, 0.75%, and 1% (fourth experiment) buffered with acetic acid to pH 6.5 were made on harvested open petunia flowers. Approximately 24 hours after spray applications, the flowers were arranged in humid chambers maintaining relative humidity of 98-100% and inoculated by spraying spore suspension (10^4 spores/ml) of B. cinerea isolate PDRK3 (Bennett et al. 2019). Fungicide applications and spore suspensions were misted onto flowers until runoff to completely cover the flower using a 4 oz clear PET plastic bullet bottle with white mist sprayer (The Cary Company, Addison, IL). The petunia flowers were evaluated 72 h after inoculation to observe botrytis blight severity and phytotoxicity using ratings from 0 to 8 scale based on the area of infected corolla (0=no infection; 8=complete necrosis), modified from Bennett (2019). Pydiflumethophen+fludioxonil (sold under the trademark MIRAVIS™ PRIME; Syngenta, Raleigh, NC) was used as a commercial fungicide control along with a non-inoculated and an inoculated control. Ten flowers were evaluated per treatment and the entire experiment was repeated twice.

[7] = test system: petunia flowers; experiment: Phytotoxicity on harvested petunia flowers after spray application; assay type: in vivo, Petuniaxhybrida 'Dreams burgundy picotee'
Procedure: as §3

[8] = test system: Botrytis cinerea isolate S4GBR4O; experiment: Botrytis blight severity on cut roses after submerging flower-head; assay type: in vivo
Procedure: (§4) Calcium propionate concentrations of 0.1%, 0.2%, 0.3%, 0.5%, 0.75%, 1% (pH 6.0), were prepared and tested against Botrytis blight on cut roses. Treatments were applied by submerging flower-head of 15 sec in the solutions of the treatments and gently moving the flowers up and down to allow the petals to open and help the product get in touch with the most internal petals. Then, the flowers were placed vertically in open PVC boxes over heavy-duty thermoformed trays (Greenhouse Megastore, Danville, IL) containing 3 L of water. The boxes and trays were placed inside open humid chambers for 24 h, then the flowers were sprayed with a Botrytis cinerea spore suspension at 10^5 spores/ml from the previously characterized isolate S4GBR4O (Muñoz et al., 2019). The humid chambers were closed, and data collection of disease severity was taken 3, 5, and 7 days after the inoculation. Relative humidity in the humid chambers was maintained in a range of 97-100% which was verified using a psychrometer (RH300, Extech Instruments, Nashua, NH, US). Observational data on phytotoxicity symptoms were also collected. Additionally, an inoculated control, Pydiflumethophen+Fludioxonil (sold under the trademark MIRAVIS™ PRIME; Syngenta, Raleigh, NC), and a non-inoculated treatment were included in the evaluation. The experiment with CaP treatments of 0.5%, 0.75%, and 1% (pH 6.0) were conducted only once due to phytotoxicity issues. All lower dose treatments were performed twice.

[9] = test system: cut roses; experiment: Phytotoxicity on cut roses after submerging flower-head; assay type: in vivo, cultivar Orange Crush
Procedure: as §4

[10] = 8000 ppm (0.8%; pH 6.0), after 2-4 days, growth rate reaching untreated control
[11] = six isolates, amended PDA, pH 6.0, 25° C. dark

## CCC(=O)[O-].CCC(=O)[O-].[Ca+2] [CaP, calcium propionate]
[1]
  mean EC50 mycelium growth: 527.77 µg/mL
[2]
  mean EC50 mycelium growth: 618.25 µg/mL
[3]; [10]
  mycelium growth recovery after initial inhibition: recovered quickly
[3]; [11]
  mean EC50 mycelium growth: 1354.87 µg/mL
[4]; [10]
  mycelium growth recovery after initial inhibition: recovered quickly
[4]; [11]
  mean EC50 mycelium growth: 1310.34 µg/mL
[5]; 8000 ppm (0.8%; pH 6.0), after 2-4 days of incubation
  mycelium growth inhibition: ~100%
[5]; CaP 1, 5, 25, and 100 mg/L, preliminary experiments
  maximum inhibition of fungal mycelium growth: below 20%
[5]; isolates sensitive vs resistant to commonly used FRAC groups
  mean EC50 of fungicide-sensitive versus fungicide-resistant isolates: not significantly different
[6]; 0.75% to 1% (fourth experiment) and 0.1% to 0.3% (third experiment), pH 6.5
  control efficacy with increase in concentration: did not correspond to an increase in control efficacy
[6]; experiment three, all CaP treatments 0.1%, 0.2%, 0.3% (pH 6.5)
  disease severity: reduced disease severity
[6]; experiment two, 0.75% and 1.0% CaP (pH 6.5)
  botrytis blight control compared to the 0.5% treatment: significantly better control
[6]; experiment two, all CaP treatments 0.5%, 0.75%, 1% (pH 6.5)
  disease severity: reduced disease severity
[6]; first experiment, 1.25% CaP, pH 6.5 compared to pH 7.7
  botrytis blight control, lower pH vs higher pH treatment: significantly better control
[6]; first experiment, increase from 1.25% to 5%
  control efficacy with increase in concentration: did not correspond to an increase in control efficacy
[6]; first experiment, spray 1.25%, 2.5%, and 5% (pH 6.5 and 7.7), 72 h after inoculation
  botrytis blight severity vs inoculated control: reduced botrytis blight compared to the inoculated control
[6]; third and fourth experiments, all CaP concentrations 0.1%-1% at pH 6.5
  botrytis blight severity vs inoculated control: reduced botrytis blight compared to the inoculated control
[7]; experiment three, 0.1% (pH 6.5)
  phytotoxicity: barely noticeable
[7]; experiment three, 0.1% CaP (pH 6.5)
  phytotoxicity, difference to untreated control: no significant difference
[7]; experiment three, lower concentrations 0.1%-0.3% (pH 6.5)
  phytotoxicity: very little to no phytotoxicity
[7]; experiment two, 0.5% (pH 6.5)
  phytotoxicity: barely noticeable
[7]; experiment two, 0.75% and 1% (pH 6.5)
  phytotoxicity: noticeable phytotoxicity
[7]; first experiment, 1.25%, 2.5%, and 5% CaP (pH 6.5 and 7.7)
  phytotoxicity (bleaching of petunia flower tissue): Evidence of phytotoxicity was observed
[7]; fourth experiment, 0.5%, 0.75%, and 1% CaP (pH 6.5), increased with increasing concentrations
  phytotoxicity (bleaching of petunia flower tissue): Evidence of phytotoxicity was observed
[8]; first rose experiment, 0.5%, 0.75%, and 1% CaP (pH 6.0)
  botrytis blight severity, difference to inoculated control: No statistical differences
[8]; second rose experiment, 0.1% (pH 6.0) CaP
  efficacy against botrytis blight compared to grower standard: as effective as the grower standard Miravis Prime
[8]; second rose experiment, 0.1% CaP (pH 6.0)
  efficacy against botrytis blight compared to 0.3% CaP: significantly higher efficacy
[9]; 0.1% CaP (pH 6.0)
  phytotoxicity: no to barely noticeable phytotoxicity
[9]; 0.3% and 0.2% CaP (pH 6.0)
  phytotoxicity symptoms: minor symptoms of phytotoxicity
  size of phytotoxicity spots: 1-2 mm
[9]; 0.5% CaP (pH 6.0) and higher, rounded areas in outermost petals, discolored edges
  phytotoxicity symptoms: phytotoxicity symptoms were observed
